Data on four molecules can be found in publication PMC4356144, “The kinase LYK5 is a major chitin receptor in Arabidopsis and forms a chitin-induced complex with related kinase CERK1” (eLife, 2014).

For data set [1], the target named is T1, AtLYK5 (full-length, HA-tagged) (Arabidopsis thaliana, UniProt O22808).
T1 construct: gene LYK5; full-length cDNA, HA tag, 35S promoter, Arabidopsis Col-0 protoplasts
T1 sequence (O22808 27-664): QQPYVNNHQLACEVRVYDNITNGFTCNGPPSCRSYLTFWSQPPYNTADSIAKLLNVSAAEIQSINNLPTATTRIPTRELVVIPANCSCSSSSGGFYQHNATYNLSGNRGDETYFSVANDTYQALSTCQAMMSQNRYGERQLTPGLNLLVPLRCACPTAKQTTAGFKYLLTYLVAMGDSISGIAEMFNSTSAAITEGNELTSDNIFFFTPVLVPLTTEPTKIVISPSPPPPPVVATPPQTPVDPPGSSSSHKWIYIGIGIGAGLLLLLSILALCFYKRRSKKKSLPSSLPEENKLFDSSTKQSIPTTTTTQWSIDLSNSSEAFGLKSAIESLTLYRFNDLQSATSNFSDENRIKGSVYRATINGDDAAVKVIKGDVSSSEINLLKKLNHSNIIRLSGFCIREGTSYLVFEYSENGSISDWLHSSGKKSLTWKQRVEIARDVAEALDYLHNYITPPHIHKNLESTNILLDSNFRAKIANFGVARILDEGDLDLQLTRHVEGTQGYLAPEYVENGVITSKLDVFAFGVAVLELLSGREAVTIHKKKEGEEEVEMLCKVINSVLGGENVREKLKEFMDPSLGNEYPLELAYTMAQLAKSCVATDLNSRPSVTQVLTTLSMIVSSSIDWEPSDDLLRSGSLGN
Description: competition of chitin magnetic bead pull-down, anti-HA immunoblot. Format: biochemical. The conditions noted are these: protoplasts treated with 10 µM oligomer for 15 min before harvest. On the technique in general: Immunoblotting shows a protein as a band on a membrane.

Data set [2] concerns the target T2, AtLYK4 (full-length, HA-tagged) (Arabidopsis thaliana, UniProt O64825).
T2 construct: gene LYK4; full-length cDNA, HA tag, 35S promoter, Arabidopsis Col-0 protoplasts
T2 sequence (O64825 23-612): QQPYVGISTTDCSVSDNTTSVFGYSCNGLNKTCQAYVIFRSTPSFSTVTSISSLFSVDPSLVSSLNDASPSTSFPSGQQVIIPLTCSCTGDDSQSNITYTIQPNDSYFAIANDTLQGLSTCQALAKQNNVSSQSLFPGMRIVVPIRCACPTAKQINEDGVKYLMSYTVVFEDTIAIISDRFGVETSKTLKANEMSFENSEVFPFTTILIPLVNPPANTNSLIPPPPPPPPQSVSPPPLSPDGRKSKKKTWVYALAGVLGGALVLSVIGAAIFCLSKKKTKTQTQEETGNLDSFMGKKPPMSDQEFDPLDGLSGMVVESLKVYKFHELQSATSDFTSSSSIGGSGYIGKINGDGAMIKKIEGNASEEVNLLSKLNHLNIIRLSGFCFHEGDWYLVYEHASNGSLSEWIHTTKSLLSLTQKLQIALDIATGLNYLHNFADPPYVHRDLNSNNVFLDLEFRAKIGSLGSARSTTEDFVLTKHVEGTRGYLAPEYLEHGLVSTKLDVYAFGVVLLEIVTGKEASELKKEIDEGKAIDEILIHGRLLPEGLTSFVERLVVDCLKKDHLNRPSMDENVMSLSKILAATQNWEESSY
The data set is described as above. The format is biochemical. The conditions noted are these: protoplasts treated with 10 µM oligomer for 15 min before harvest.

For data set [3], the target named is T3, wheat germ agglutinin (WGA).
T3 construct: gene WGA1
Description: isothermal titration calorimetry. Format: binding. The conditions noted are these: 10 mM HEPES pH 7.5, 100 mM NaCl, 25°C. On the technique in general: In ITC the heat of successive injections is recorded.

A further data set has as its target T4, AtCERK1 (ectodomain) (Arabidopsis thaliana, UniProt A8R7E6).
T4 construct: gene CERK1; ectodomain 24-231 aa, pMAL-c2G (MBP fusion), amylose resin purified, E. coli
T4 sequence (A8R7E6 24-231): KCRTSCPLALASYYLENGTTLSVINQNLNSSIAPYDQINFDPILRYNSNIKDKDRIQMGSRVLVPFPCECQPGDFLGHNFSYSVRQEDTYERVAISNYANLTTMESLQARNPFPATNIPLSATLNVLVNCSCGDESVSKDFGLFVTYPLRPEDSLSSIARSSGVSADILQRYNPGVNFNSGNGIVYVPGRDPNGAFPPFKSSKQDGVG
Description: isothermal titration calorimetry. The conditions noted are these: 10 mM HEPES pH 7.5, 100 mM NaCl, 25°C. Format: binding.

The next data set has as its target T5, AtLYK5 (ectodomain) (Arabidopsis thaliana, UniProt O22808).
T5 construct: gene LYK5; ectodomain 27-278 aa, E. coli BL21, pMCSG73; thrombin site before His tag, thrombin-cleaved, then Strep-Tactin purified
T5 sequence (O22808 27-278): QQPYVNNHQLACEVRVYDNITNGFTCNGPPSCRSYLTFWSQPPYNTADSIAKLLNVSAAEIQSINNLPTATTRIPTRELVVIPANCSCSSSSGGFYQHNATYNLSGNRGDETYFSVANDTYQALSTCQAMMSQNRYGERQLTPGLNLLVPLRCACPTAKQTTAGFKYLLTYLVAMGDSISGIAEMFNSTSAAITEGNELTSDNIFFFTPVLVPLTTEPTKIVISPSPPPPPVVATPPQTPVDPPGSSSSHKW
Description: isothermal titration calorimetry. Format: binding. The conditions noted are these: 10 mM HEPES pH 7.5, 100 mM NaCl, 25°C.

The target of a further data set is T6, AtCERK1 kinase domain (Arabidopsis thaliana, UniProt A8R7E6).
T6 construct: gene CERK1; intracellular kinase domain 255-617 aa, N-terminal GST, pGEX 5X-1, E. coli BL21 (DE3)
T6 sequence (A8R7E6 255-617): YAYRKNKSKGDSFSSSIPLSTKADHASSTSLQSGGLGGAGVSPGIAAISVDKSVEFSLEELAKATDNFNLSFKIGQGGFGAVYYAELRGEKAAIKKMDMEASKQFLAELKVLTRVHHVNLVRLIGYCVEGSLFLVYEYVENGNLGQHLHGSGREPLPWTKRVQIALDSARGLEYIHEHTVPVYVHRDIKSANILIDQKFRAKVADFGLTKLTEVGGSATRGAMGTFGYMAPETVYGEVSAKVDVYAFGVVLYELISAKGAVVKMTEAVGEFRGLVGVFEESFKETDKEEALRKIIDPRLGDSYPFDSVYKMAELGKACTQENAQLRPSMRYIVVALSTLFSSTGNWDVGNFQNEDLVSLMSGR
Description: in vitro autophosphorylation, […] autoradiography. Format: biochemical. The conditions noted are these: 50 mM Tris pH 7.6, 50 mM KCl, 10 mM MnCl2, 10 mM MgCl2, room temperature; labelled compound.

Data set [4] deals with the molecule itself. Kind of data set: SDS-PAGE without reducing agent and immunoblot; crude protein of transgenic Arabidopsis expressing AtLYK5-HA in Atlyk5-2, before or 15 min after 1 µM chitooctaose, boiled 5 min without DTT; anti-HA blot.

Take `CC(=O)N[C@H]1[C@H](O[C@H]2[C@H](O)[C@@H](NC(C)=O)[C@H](O[C@H]3[C@H](O)[C@@H](NC(C)=O)[C@H](O[C@H]4[C@H](O)[C@@H](NC(C)=O)C(O)O[C@@H]4CO)O[C@@H]3CO)O[C@@H]2CO)O[C@H](CO)[C@@H](O[C@@H]2O[C@H](CO)[C@@H](O[C@@H]3O[C@H](CO)[C@@H](O[C@@H]4O[C@H](CO)[C@@H](O)[C@H](O)[C@H]4NC(C)=O)[C@H](O)[C@H]3NC(C)=O)[C@H](O)[C@H]2NC(C)=O)[C@@H]1O` (some centres unmarked) [7mer, chitoheptaose]: in data set [1], the “competition of chitin magnetic bead pull-down, anti-HA immunoblot” value was “The binding with AtLYK5 was strongly inhibited by chitoheptaose and chitooctaose”.
`CC(=O)N[C@H]1[C@H](O[C@H]2[C@H](O)[C@@H](NC(C)=O)[C@H](O[C@H]3[C@H](O)[C@@H](NC(C)=O)[C@H](O[C@H]4[C@H](O)[C@@H](NC(C)=O)C(O)O[C@@H]4CO)O[C@@H]3CO)O[C@@H]2CO)O[C@H](CO)[C@@H](O[C@@H]2O[C@H](CO)[C@@H](O[C@@H]3O[C@H](CO)[C@@H](O[C@@H]4O[C@H](CO)[C@@H](O[C@@H]5O[C@H](CO)[C@@H](O)[C@H](O)[C@H]5NC(C)=O)[C@H](O)[C@H]4NC(C)=O)[C@H](O)[C@H]3NC(C)=O)[C@H](O)[C@H]2NC(C)=O)[C@@H]1O` (some centres unmarked) [8mer, chitooctaose]: the “competition of chitin magnetic bead pull-down, anti-HA immunoblot” value in data set [2] was “the binding with AtCERK1 or AtLYK4 was only slightly reduced by the same competitors”; in data set [1], “The binding with AtLYK5 was strongly inhibited by chitoheptaose and chitooctaose”. In addition, the equilibrium dissociation constant (Kd) in data set [3] amounted to 1600 nM; on AtCERK1 (ectodomain), 455000 nM; on AtLYK5 (ectodomain) it was 1720 nM.
Take `Nc1ncnc2c1ncn2[C@@H]1O[C@H](COP(=O)(O)OP(=O)(O)OP(=O)(O)O)[C@@H](O)[C@H]1O` [ATP]: at AtCERK1 kinase domain, the “in vitro autophosphorylation, 32P autoradiography” value is given as “the AtCERK1 kinase domain showed strong kinase activity as previously reported”.

B1: AtLYK5-HA (full length AtLYK5 under its native promoter in Atlyk5-2 mutant plants) (receptor, Arabidopsis thaliana, UniProt O22808 27-664, looked up)
chain: T1 sequence (O22808 27-664)
notes: AtLYK5 (At2g33580), Arabidopsis thaliana; genomic fragment with the 1.8 kb promoter and the coding region up to the stop codon, in pGWB13; also called wild-type AtLYK5; source: transgenic Arabidopsis (Atlyk5-2 background, native promoter), in crude extract or lysate
For the molecule B1, the “stoichiometry N” value in data set [4] is 2.

What is called Kd is the constant that tells how readily two partners part at equilibrium. For orientation: stoichiometry N means the number of molecules, sites or subunits per partner or assembly.
